Experimental findings from patent US7511074B2, “Tetrafluorobenzyl derivatives and pharmaceutical composition for preventing and treating acute and chronic neurodegenerative diseases in central nervous system containing the same” (AmKor Pharma, Inc., priority 2002, dated 2009) are described below.

Assay [1] concerns Mouse cortical cell cultures. Description: FeCl2-induced free radical neurotoxicity in mixed cortical cell cultures (LDH assay). The assay is classed as cell-based. The settings on record: continuous 50 μM FeCl2; LDH 24 hr later. The method, then:
(§1) Mouse cortical cell cultures (DIV 12-14) were exposed to continuously to 50 μM Fe^2+, alone or with inclusion of 0.1-100 μM 2-Hydroxy-TTBA (●) or trolox (◯), a membrane-permeable form of vitamin E). Neuronal death was analyzed 24 hr later by measuring levels of LDH released into the bathing medium, mean ±SEM (n=9-12 culture wells per condition), scaled to mean LDH efflux value 24 hr after sham wash (=0) and continuous exposure to 500 μM NMDA (=100). *, Significant difference from the vehicle control, p<0.05 using ANOVA and Student-Neuman-Keuls' test.
as §1, with “alone (♦)” for “alone”, “1-30” for “0.1-100”, “2-Hydroxy-TTS (●), 2-Hydroxy-TTA (◯), 2-Chloro-TTP (▾), 2-Ethan-TTBA (∇), 2-Propan-TTBA (▪),” for “2-Hydroxy-TTBA (●)”, “2-Cyclohexan-TTBA (□).” for “trolox (◯), a membrane-permeable form of vitamin E).”
For mixed neuron-glia culture, mouse cerebral cortices were removed from brains of the 14-16 day-old-fetal mice (E14-16), gently triturated and plated on 24 well plates (2×10^5 cells/plate) precoated with 100 μg/ml poly-D-lysine and 4 μg/ml laminine. Cultures were maintained at 37° C. in a humidified 5% CO2 atmosphere. Plating media consist of Eagles minimal essential media (MEM, Earles salts, supplied glutamine-free) supplemented with 5% horse serum, 5% fetal bovine serum, 26.5 mM bicarbonate, 2 mM glutamine, and 21 mM glucose.
After 7-8 days in vitro (DIV 7-8), 10 μM cytosine arabinofuranoside (Ara-C) was included to halt overgrowth of glia. The drug treatment was carried on DIV 12-15 cortical cell culture. Overall neuronal cell injury was assessed by measuring amount of lactate dehydrogenase (LDH) released into the bathing medium 24 hr after neurotoxic insults as previously described [Koh and Choi, J Neurosci Methods 20:83-90, 1987].
Mixed cortical cell cultures (DIV 13-15) were continuously exposed to 50 μM FeCl2, which produces hydroxyl radical via a Fenton reaction, alone or with inclusion of 2-Hydroxy-TTBA, 2-Hydroxy-TTA, 2-Hydroxy-TTS, 2-Chloro-TTP, 2-Ethan-TTBA, 2-Propan-TTBA, 2-Cyclohexan-TTBA or trolox (a vitamin E analogue) at indicated doses. Neuronal cell death was analyzed 24 hr later by LDH assay as described above. *, Significant difference from the vehicle control (FeCl2), p<0.05 using ANOVA and Student-Neuman-Keuls' test.

For assay [2], the system named is ALS mice (G93A human SOD1 mutation). Description: Neuronal death in spinal cord of ALS transgenic mice (SOD1-G93A). The assay is classed as in vivo, mouse. The protocol:
Bright field photomicrographs of spinal cord sections stained with eosin from amyotrophic lateral sclerosis (ALS) mice over expressing the mutant SOD1-G93A that received vehicle (A) or 2-Hydroxy-TTBA (B, 10 mg/kg/day through drinking water) for 8 weeks from the age of 2 months.
Degenerating neurons from FIG. 7a. were analyzed by counting viable neurons after staining with eosin in the dorsal and ventral horn of spinal cord from ALS mice treated with a vehicle (Control) or 2-Hydroxy-TTBA, mean ±S.E.M (n=5 animals for each condition). *, Significant difference from the vehicle control, p<0.05 using the independent t-test.
Transgenic mice with the G93A human SOD1 mutation (B6SJL-TgN(SOD1-G93A)1Gur), animal models of ALS (ALS mice), were obtained from Jackson Laboratories (ME, USA). 2-hydroxy-TTBA was administered to 2 month-old wild type and ALS transgenic mice through drinking water bottle (10 mg/kg per day) for 8 weeks. Animals were then euthanized and spinal cords processed for histological examination by staining with hematoxylin and eosin. Spinal motor neurons from ALS mice without being treated with 2-hydroxy-TTBA (control) underwent degeneration as evident by eosinophilic staining, which was reduced in ALS mice treated with 2-hydroxy-TTBA (FIG. 7a).
The number of degenerating neurons was analyzed by counting eosinophilic neurons in ventral horn (VH) and dorsal horn (DH).

The subject of assay [3] is Sprague-dawley rats, four-vessel occlusion. Put plainly: Mitochondrial ROS generation after transient global ischemia (four-vessel occlusion). The assay is classed as in vivo, rat. The note with it: 50 mg/kg i.p. after reperfusion; 10 min four-vessel occlusion; analyzed 2 hr later. The method, then: Mitotracker CM-H2X ROS was injected into the lateral ventricle of rat brain at 24 hr before ischemic surgery, and then animals received transient forebrain ischemia for 10 min, with intraperitoneal injections of vehicle (control) or 2-Hydroxy-TTBA (50 mg/kg) at 5 min after reperfusion. The levels of mitochondrial ROS were analyzed 2 hr later, mean ±S.E.M. (n=50-70 neurons randomly chosen from the CA1 sector of the hippocampal formation per each condition). *, Significant difference from the vehicle control, p<0.05 using the independent t-test.
Male adult Sprague-dawley rats (250-300 g) were anesthetized with chloral hydrate and subjected to four-vessel occlusion model (occlusion of both common carotid arteries and vertebral arteries) as previously described [Pulsinelli and Brierley, stroke 10: 267-272 (1979)].
Rats received the intracerebroventricular injections of 0.4 nmol Mitotracker CM-H2X Ros. After 24 hr, rats received four-vessel occlusion for 10 min. Immediately after reperfusion, rats received the intraperitoneal injections of saline (control) or 2-Hydroxy-TTBA (50 mg/kg). Levels of mitochondrial ROS were analyzed 2 hr later by measuring the fluorescence intensity of oxidized Mitotracker CM-H2X Ros in mitochondria.

On to `O=C(O)c1cc(NCc2c(F)c(F)c(C(F)(F)F)c(F)c2F)ccc1O` [2-Hydroxy-TTBA, 2-hydroxy-5-(2,3,5,6-tetrafluoro-4-trifluoromethylbenzylamino)benzoic acid], for which, in assay [1], the “prevention of FeCl2-induced free radical neurotoxicity” value is recorded as “prevented FeCl2-induced free radical neurotoxicity in a dose-dependent manner” and the “strength relative to trolox in preventing free radical neurotoxicity” value amounted to 30 fold. For the same compound, the “degeneration of spinal motor neurons (eosinophilic staining)” value in assay [2] (10 mg/kg per day in drinking water for 8 weeks from 2 months of age) is reported as “reduced”. Further, the “degeneration of dorsal and ventral horn neurons (count of eosinophilic neurons)” value in assay [2] (10 mg/kg per day in drinking water for 8 weeks, n=5 animals) was “significantly prevented degeneration”. Moreover, the “production of mitochondrial ROS after transient global ischemia” value in assay [3] was “reduced production of mitochondrial ROS”.
